Literature values as cited in US11858967B2, “Compositions and methods for enhanced production of enduracidin in a genetically engineered strain of streptomyces fungicidicus” (Oregon State University, priority 2016, dated 2024).
Read-outs that look alike come from different tables or passages of the source.

Assays:
[1] = mice, rabbits, dogs and monkeys
[2] = rat, in vivo
[3] = tested on: S. aureus (100 strains, including 40% MRSA); details: 100 strains of S. aureus
[4] = in vivo
MRSA = details: humans, i.m. 100 mg every 12 hours
[5] = tested on: Gram-positive organisms, including methicillin-resistant Staphylococcus aureus (MRSA) and vancomycin-resistant Enterococcus (VRE)
[6] = monkey, in vivo

Substance: Enduracidin
- activity towards Clostridium spp. (Clostridium spp.): excellent activity
- acute LD50 ([1]; intraperitoneal): 750 to 910 mg/kg
- acute LD50 ([1]; intravenous): 30 to 125 mg/kg
- acute LD50 ([1]; subcutaneous, intramuscular (i.m.) or oral): 5000 to 10000 mg/kg
- findings after long-term dosing [2]: localized inflammation at the injection site
- concentration at which no strain was able to survive exposure [3]: 1 µg/mL
- oral bioavailability [4]: lack of oral bioavailability
- efficacy in chronic bone infections (MRSA): not chronic bone infections
- efficacy in urinary tract and skin infections caused by MRSA (MRSA): highly effective
- type of antibacterial effect [5]: bactericidal
- Minimum inhibitory concentrations (MICs) ([5]; as low as): ≥ 0.05 µg/mL
- findings after long-term dosing [6]: localized inflammation at the injection site
